pIC50: −log10 of the molar value. Values after ≈ are worked out from the molar mass of the structure shown.
Experiments:
[1] = Antiribosomal activity against humanized bacterial ribosome incorporating A1555G mutant of human mitochondrial ribosome assessed as inhibition of luciferase production by cell-free translation assay
Pseudomonas aeruginosa = assay: Antibacterial activity against Pseudomonas aeruginosa AG220; format: functional
Klebsiella pneumoniae = assay: Antibacterial activity against Klebsiella pneumoniae AG215; format: functional
Bacterial 70S ribosome = assay: Antiribosomal activity against wild type bacterial ribosomes assessed as inhibition of luciferase production by cell-free translation assay; format: subcellular, Bacteria
[2] = Antiribosomal activity against humanized bacterial ribosome incorporating human cytoplasmic ribosome Cyt14 assessed as inhibition of luciferase production by cell-free translation assay
[3] = Selectivity ratio of IC50 for antiribosomal activity against humanized bacterial ribosome incorporating A1555G mutant of human mitochondrial ribosome to IC50 for antiribosomal activity against wild type bacterial ribosomes
[4] = Antiribosomal activity against humanized bacterial ribosome incorporating complete decoding A site from human mitochondrial ribosome Mit13 assessed as inhibition of luciferase production by cell-free translation assay
[5] = Selectivity ratio of IC50 for antiribosomal activity against humanized bacterial ribosome incorporating human cytoplasmic ribosome Cyt14 to IC50 for antiribosomal activity against wild type bacterial ribosomes
[6] = Selectivity ratio of IC50 for antiribosomal activity against humanized bacterial ribosome incorporating complete decoding A site from human mitochondrial ribosome Mit13 to IC50 for antiribosomal activity against wild type bacterial ribosomes
Escherichia coli = assay: Antibacterial activity against Escherichia coli AG001; format: functional
Staphylococcus aureus = assay: Antibacterial activity against Methicillin-resistant Staphylococcus aureus AG038; format: functional
Enterobacter cloacae = assay: Antibacterial activity against Enterobacter cloacae AG290; format: functional
Acinetobacter baumannii = assay: Antibacterial activity against Acinetobacter baumannii AG309; format: functional

Compound | IC50 [1] [mg/L] | Activity (Pseudomonas aeruginosa) [µg/mL] | Activity (Klebsiella pneumoniae) [µg/mL] | pIC50 (Bacterial 70S ribosome) | IC50 [2] [mg/L] | Ratio IC50 [3] | IC50 [4] [mg/L] | Ratio IC50 [5] | Ratio IC50 [6] | Activity (Escherichia coli) [µg/mL] | Activity (Staphylococcus aureus) [µg/mL] | Activity (Enterobacter cloacae) [µg/mL] | Activity (Acinetobacter baumannii) [µg/mL]
CN[C@@H]1[C@@H](O[C@H]2O[C@H](CO)[C@@H](N)[C@H](O)[C@H]2O)O[C@H]2C[C@@H](N)[C@@H](O[C@H]3[C@H](O)[C@@H](O)[C@H](N)C[C@@H]3N)O[C@@H]2[C@@H]1O | 40 (≈ 74.1 µM) | 4 | 1 to 2 | 6.84 | 69 (≈ 128 µM) | 513 | 67 (≈ 124 µM) | 885 | 859 | 4 | 4 | 2 to 4 | 4
CN[C@@H]1[C@@H](O[C@H]2O[C@H](CO)[C@@H](O)[C@H](O)[C@H]2O)O[C@H]2C[C@@H](N)[C@@H](O[C@H]3[C@H](O)[C@@H](O)[C@H](N)C[C@@H]3N)O[C@@H]2[C@@H]1O | 307 (≈ 568 µM) | 8 to 16 | 4 | 6.53 | 437 (≈ 808 µM) | 1920 | > 500 | 2730 | > 3120 | 8 to 16 | 32 | 4 to 8 | 8
